Measurements as given in patent US10294202B2, “Pyrrolidinones as herbicides” (FMC Corporation, priority 2013, dated 2019).

Key:
barnyardgrass [1] = test: Test C pre-/postemergence herbicide test; assay type: in vivo, Echinochloa crus-galli
In short: (§1)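 Test compounds, formulated in a surfactant-containing non-phytotoxic solvent blend, are applied to seeded loam/sand soil (preemergence) and to young plants at the 1- to 4-leaf stage in peat-based medium (postemergence). Plants stay 13 to 15 days under greenhouse conditions, then are scored visually relative to controls, 0 = no effect, 100 = complete control.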

blackgrass = test: Test C pre-/postemergence herbicide test; assay type: in vivo, Alopecurus myosuroides
In short: as §1

oilseed rape = test: Test C pre-/postemergence herbicide test; assay type: in vivo, Brassica napus
In short: as §1

barnyardgrass [2] = test: Test B flooded paddy test; assay type: in vivo, Echinochloa crus-galli; settings: 500 g ai/ha, Flood; scale of 0 to 100 where 0 is no effect and 100 is complete control
In short: (§2)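 In-water application to pots flooded 3 cm deep, plants at 2-leaf stage. Held in greenhouse 13–15 days at constant flood depth. Scored 0–100 by eye against controls.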

nutsedge, yellow = test: Test C pre-/postemergence herbicide test; assay type: in vivo, Cyperus esculentus
In short: as §1

wheat = test: Test A pre-/postemergence herbicide test; assay type: in vivo, Triticum aestivum; settings: Postemergence
In short: (§3)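 Planted in loam–sand blend; treated the same day preemergence by directed soil spray, while separately grown plants at one- to two-leaf stage got postemergence spray. Compared visually with untreated controls after approximately 10 days; 100 means complete control.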

crabgrass, large = test: Test C pre-/postemergence herbicide test; assay type: in vivo, Digitaria sanguinalis
In short: as §1

pigweed = test: Test C pre-/postemergence herbicide test; assay type: in vivo, Amaranthus retroflexus
In short: as §1

lambsquarters = test: Test C pre-/postemergence herbicide test; assay type: in vivo, Chenopodium album
In short: as §1

rice = test: Test B flooded paddy test; assay type: in vivo, Oryza sativa; settings: 500 g ai/ha, Flood; scale of 0 to 100 where 0 is no effect and 100 is complete control
In short: as §2

giant foxtail = test: Test A pre-/postemergence herbicide test; assay type: in vivo, Setaria faberii
In short: as §3

ducksalad = test: Test B flooded paddy test; assay type: in vivo, Heteranthera limosa; settings: 500 g ai/ha, Flood; scale of 0 to 100 where 0 is no effect and 100 is complete control
In short: as §2

[3] = Postemergence, 31 g ai/ha, scale 0 to 100 (0 no effect, 100 complete control)
[4] = Postemergence, 62 g ai/ha, scale 0 (no effect) to 100 (complete control)
[5] = Postemergence, 125 g ai/ha, scale 0 to 100 (0 no effect, 100 complete control)
[6] = Postemergence, 250 g ai/ha, scale 0 to 100 (0 no effect, 100 complete control)
[7] = Preemergence, 31 g ai/ha, scale 0 to 100, 0 is no effect and 100 is complete control
[8] = Preemergence, 62 g ai/ha, scale 0 to 100 (0 no effect, 100 complete control)
[9] = Preemergence, 125 g ai/ha, scale 0 to 100 (0 no effect, 100 complete control)
[10] = 125 g ai/ha, visual rating on 0 to 100 scale (0 no effect, 100 complete control), approx. 10 days
[11] = 500 g ai/ha, 0 to 100 scale (0 no effect, 100 complete control)
[12] = Postemergence, 125 g ai/ha, 0 to 100 scale, 0 is no effect, 100 is complete control
[13] = Postemergence, 500 g ai/ha, 0 to 100 scale (0 no effect, 100 complete control)
[14] = Preemergence, 125 g ai/ha, 0 to 100 scale where 0 is no effect and 100 is complete control
[15] = preemergence, 500 g ai/ha, 0 to 100 scale, 0 is no effect and 100 is complete control

O=C1NCC(c2cc(F)cc(F)c2)C1C(=O)Nc1ccc(F)cc1F (racemic) [Compound 278]
Plant response rating, Barnyardgrass (barnyardgrass [1]; [3]): 0
Plant response rating, Barnyardgrass (barnyardgrass [1]; [4]): 10
Plant response rating, Barnyardgrass (barnyardgrass [1]; [5]): 55
Plant response rating, Barnyardgrass (barnyardgrass [1]; [6]): 75
Barnyardgrass plant response rating (barnyardgrass [1]; [7]): 65
Barnyardgrass plant response rating (barnyardgrass [1]; [8]): 90
Plant response rating, Barnyardgrass (barnyardgrass [1]; [9]): 95
Plant response rating (scale of 0 to 100; 0 is no effect, 100 is complete control), Barnyardgrass (barnyardgrass [1]; Preemergence, 250 g ai/ha): 100
Plant response rating, Blackgrass (blackgrass; [3]): 0
Plant response rating, Blackgrass (blackgrass; [4]): 0
Plant response rating, Blackgrass (blackgrass; [5]): 0
Plant response rating, Blackgrass (blackgrass; [6]): 0
Blackgrass plant response rating (blackgrass; [7]): 0
Blackgrass plant response rating (blackgrass; [8]): 0
Plant response rating, Blackgrass (blackgrass; [9]): 0
Plant response rating (scale of 0 to 100), Blackgrass (blackgrass; Preemergence, 250 g ai/ha): 0
Plant response rating, Oilseed Rape (oilseed rape; [3]): 0
Plant response rating, Oilseed Rape (oilseed rape; [4]): 0
Plant response rating, Oilseed Rape (oilseed rape; [5]): 5
Plant response rating, Oilseed Rape (oilseed rape; [6]): 0
Oilseed Rape plant response rating (oilseed rape; [7]): 0
Oilseed Rape plant response rating (oilseed rape; [8]): 0
Plant response rating, Oilseed Rape (oilseed rape; [9]): 0
Plant response rating (scale of 0 to 100), Oilseed Rape (oilseed rape; Preemergence, 250 g ai/ha): 5
Plant response rating, Barnyardgrass (barnyardgrass [2]): 60
Plant response rating, Nutsedge, Yellow (nutsedge, yellow; [3]): 0
Plant response rating, Nutsedge, Yellow (nutsedge, yellow; [4]): 0
Plant response rating, Nutsedge, Yellow (nutsedge, yellow; [5]): 0
Plant response rating, Nutsedge, Yellow (nutsedge, yellow; [6]): 15
Nutsedge, Yellow plant response rating (nutsedge, yellow; [7]): 0
Nutsedge, Yellow plant response rating (nutsedge, yellow; [8]): 0
Plant response rating, Nutsedge, Yellow (nutsedge, yellow; [9]): 5
Plant response rating (scale of 0 to 100), Nutsedge, Yellow (nutsedge, yellow; Preemergence, 250 g ai/ha): 5
Plant response rating, Wheat (wheat; [10]): 0
Plant response rating, Wheat (wheat; [11]): 0
Plant response rating, Crabgrass, Large (crabgrass, large; [3]): 0
Plant response rating, Crabgrass, Large (crabgrass, large; [4]): 30
Plant response rating, Crabgrass, Large (crabgrass, large; [5]): 65
Plant response rating, Crabgrass, Large (crabgrass, large; [6]): 75
Crabgrass, Large plant response rating (crabgrass, large; [7]): 90
Crabgrass, Large plant response rating (crabgrass, large; [8]): 95
Plant response rating, Crabgrass, Large (crabgrass, large; [9]): 98
Plant response rating (scale of 0 to 100), Crabgrass, Large (crabgrass, large; Preemergence, 250 g ai/ha): 100
Plant response rating, Pigweed (pigweed; [3]): 0
Plant response rating, Pigweed (pigweed; [4]): 5
Plant response rating, Pigweed (pigweed; [5]): 15
Plant response rating, Pigweed (pigweed; [6]): 15
Pigweed plant response rating (pigweed; [7]): 5
Pigweed plant response rating (pigweed; [8]): 0
Plant response rating, Pigweed (pigweed; [9]): 0
Plant response rating (scale of 0 to 100), Pigweed (pigweed; Preemergence, 250 g ai/ha): 0
Plant response rating, Lambsquarters (lambsquarters; [3]): 0
Plant response rating, Lambsquarters (lambsquarters; [4]): 0
Plant response rating, Lambsquarters (lambsquarters; [5]): 20
Plant response rating, Lambsquarters (lambsquarters; [6]): 20
Lambsquarters plant response rating (lambsquarters; [7]): 0
Lambsquarters plant response rating (lambsquarters; [8]): 0
Plant response rating, Lambsquarters (lambsquarters; [9]): 0
Plant response rating (scale of 0 to 100), Lambsquarters (lambsquarters; Preemergence, 250 g ai/ha): 0
Plant response rating, Rice (rice): 0
Plant response rating, Foxtail, Giant (giant foxtail; [12]): 80
Plant response rating, Foxtail, Giant (giant foxtail; [13]): 80
Plant response rating, Foxtail, Giant (giant foxtail; [14]): 90
Plant response rating, Foxtail, Giant (giant foxtail; [15]): 90
Plant response rating, Ducksalad (ducksalad): 100

O=C1NCC(c2cc(F)cc(F)c2)C1C(=O)Nc1cccc(F)c1F (racemic) [Compound 279]
Plant response rating, Barnyardgrass (barnyardgrass [1]; [3]): 15
Plant response rating, Barnyardgrass (barnyardgrass [1]; [4]): 55
Plant response rating, Barnyardgrass (barnyardgrass [1]; [5]): 85
Plant response rating, Barnyardgrass (barnyardgrass [1]; [6]): 85
Barnyardgrass plant response rating (barnyardgrass [1]; [7]): 80
Barnyardgrass plant response rating (barnyardgrass [1]; [8]): 95
Plant response rating, Barnyardgrass (barnyardgrass [1]; [9]): 95
Plant response rating (scale of 0 to 100; 0 is no effect, 100 is complete control), Barnyardgrass (barnyardgrass [1]; Preemergence, 250 g ai/ha): 98
Plant response rating, Blackgrass (blackgrass; [3]): 0
Plant response rating, Blackgrass (blackgrass; [4]): 0
Plant response rating, Blackgrass (blackgrass; [5]): 0
Plant response rating, Blackgrass (blackgrass; [6]): 0
Blackgrass plant response rating (blackgrass; [7]): 0
Blackgrass plant response rating (blackgrass; [8]): 0
Plant response rating, Blackgrass (blackgrass; [9]): 30
Plant response rating (scale of 0 to 100), Blackgrass (blackgrass; Preemergence, 250 g ai/ha): 85
Plant response rating, Oilseed Rape (oilseed rape; [3]): 0
Plant response rating, Oilseed Rape (oilseed rape; [4]): 30
Plant response rating, Oilseed Rape (oilseed rape; [5]): 0
Plant response rating, Oilseed Rape (oilseed rape; [6]): 0
Oilseed Rape plant response rating (oilseed rape; [7]): 0
Oilseed Rape plant response rating (oilseed rape; [8]): 0
Plant response rating, Oilseed Rape (oilseed rape; [9]): 30
Plant response rating (scale of 0 to 100), Oilseed Rape (oilseed rape; Preemergence, 250 g ai/ha): 60
Plant response rating, Barnyardgrass (barnyardgrass [2]): 75
Plant response rating, Nutsedge, Yellow (nutsedge, yellow; [3]): 0
Plant response rating, Nutsedge, Yellow (nutsedge, yellow; [4]): 0
Plant response rating, Nutsedge, Yellow (nutsedge, yellow; [5]): 0
Plant response rating, Nutsedge, Yellow (nutsedge, yellow; [6]): 0
Nutsedge, Yellow plant response rating (nutsedge, yellow; [7]): 0
Nutsedge, Yellow plant response rating (nutsedge, yellow; [8]): 0
Plant response rating, Nutsedge, Yellow (nutsedge, yellow; [9]): 0
Plant response rating (scale of 0 to 100), Nutsedge, Yellow (nutsedge, yellow; Preemergence, 250 g ai/ha): 55
Plant response rating, Wheat (wheat; [10]): 40
Plant response rating, Wheat (wheat; [11]): 60
Plant response rating, Crabgrass, Large (crabgrass, large; [3]): 25
Plant response rating, Crabgrass, Large (crabgrass, large; [4]): 65
Plant response rating, Crabgrass, Large (crabgrass, large; [5]): 70
Plant response rating, Crabgrass, Large (crabgrass, large; [6]): 80
Crabgrass, Large plant response rating (crabgrass, large; [7]): 95
Crabgrass, Large plant response rating (crabgrass, large; [8]): 95
Plant response rating, Crabgrass, Large (crabgrass, large; [9]): 98
Plant response rating (scale of 0 to 100), Crabgrass, Large (crabgrass, large; Preemergence, 250 g ai/ha): 100
Plant response rating, Pigweed (pigweed; [3]): 30
Plant response rating, Pigweed (pigweed; [4]): 10
Plant response rating, Pigweed (pigweed; [5]): 30
Plant response rating, Pigweed (pigweed; [6]): 20
Pigweed plant response rating (pigweed; [7]): 0
Pigweed plant response rating (pigweed; [8]): 5
Plant response rating, Pigweed (pigweed; [9]): 0
Plant response rating (scale of 0 to 100), Pigweed (pigweed; Preemergence, 250 g ai/ha): 75
Plant response rating, Lambsquarters (lambsquarters; [3]): 0
Plant response rating, Lambsquarters (lambsquarters; [4]): 0
Plant response rating, Lambsquarters (lambsquarters; [5]): 45
Plant response rating, Lambsquarters (lambsquarters; [6]): 45
Lambsquarters plant response rating (lambsquarters; [7]): 0
Lambsquarters plant response rating (lambsquarters; [8]): 0
Plant response rating, Lambsquarters (lambsquarters; [9]): 65
Plant response rating (scale of 0 to 100), Lambsquarters (lambsquarters; Preemergence, 250 g ai/ha): 90
Plant response rating, Rice (rice): 10
Plant response rating, Foxtail, Giant (giant foxtail; [12]): 80
Plant response rating, Foxtail, Giant (giant foxtail; [13]): 90
Plant response rating, Foxtail, Giant (giant foxtail; [14]): 90
Plant response rating, Foxtail, Giant (giant foxtail; [15]): 90
Plant response rating, Ducksalad (ducksalad): 100
